{"source": "patent US20120034210A1", "about": "“COMPOSITIONS FOR POTENTIATING APOPOSIS SIGNALS IN TUMOUR CELLS” (INSTITUT BERGONIE, priority 2008, published 2012)", "type_in_all_cases": "cell-based, human", "key": {"caspase-8": {"biological_target": "caspase-8", "experiment": "Caspase-8 activation/cleavage"}, "[1]": {"tested_on": "DISC macro-complex (Fas/FADD/Caspase-8)", "experiment": "DISC formation: Fas immunoprecipitation and Western blot", "details": "vs untreated cells", "method": "Cells were incubated with 1 μg/ml APO1-3 for 30 minutes at 4° C. After washing, cells were incubated for 15 minutes at 4° C. (0 minutes) or at 37° C. (15 minutes) and then lysed for 30 minutes at 4° C. in a lysis buffer (25 mM HEPES pH 7.4, 1% Triton X-100, 150 mM NaCl, 2 mM EDTA, a cocktail including protease inhibitors (Sigma)). The lysed cells were then centrifugated for 15 minutes at 15000 rpm in order to eliminate genomic DNA, and the supernatant was kept. The sepharose beads which were coupled with protein A were added to the lysate and the mixture was incubated for 2 hours. The beads were recovered, washed intensively and the immunoprecipitated proteins were re-suspended in a denaturing and reducing buffer (0.01M Tris-HCl pH6.8, 10% glycerol (v/v), 85 mM sodium dodecyl sulfate (SDS), 5% (v/v) […] and 0.005% (w/v) bromophenol blue) then heated at 100° C. for 5 minutes. The samples were deposited in an acrylamide/Bisacrylamide gel and separated by electrophoresis. The proteins were transferred from the gel into a nitrocellulose membrane using a semi-dry medium transfer technique for 2 hours at constant amperage (0.8 mA/cm^2). […] After transfer, the nitrocellulose membrane was saturated with proteins for 30 minutes with a TBST buffer (50 mM Tris pH=8, 0.15M sodium chloride, 0.05% (v/v) Tween-20) containing 5% (w/v) skimmed powdered milk (TBSTM). After washing with TBST, the membrane was incubated for 2 hours with the primary antibody in TBST. The membrane was washed intensively then incubated for one hour with TBST containing the secondary peroxidase-coupled antibody. […] This solution contained a substrate metabolised by peroxidase to yield a luminescent compound, which allowed marking a radiographic film (Amersham)."}, "CD95": {"tested_on": "CD95", "experiment": "CD95 aggregation by size exclusion chromatography", "details": "Jurkat cells; BAPTA-AM pre-treatment", "text": "In order to validate that CD95 underwent aggregation upon down-modulation of intracellular calcium, the formation the micrometer-sized CD95-containing domain was investigated by using size exclusion chromatography (FIG. 10). Decrease in intracellular calcium allowed the redistribution of a significant proportion of CD95 into heavy weighted fractions (FIG. 10), which confirmed that the slight down-modulation of [Ca^2+]i led to the formation of cluster of CD95. It was also observed that calcium-driven CD95-CAP occurred independently of de novo expression of CD95L since no trace of the membrane-bound ligand was detected. […] Since CD95 clustering is an early step of the CD95 molecular ordering, the impact of intracellular calcium on the initial events of CD95 pathway and on cell death was further assessed."}, "[2]": {"tested_on": "intracellular calcium concentration", "experiment": "Intracellular Ca2+ concentration, indo-1 (micro)spectrofluorimetry", "method": "Principle: [Ca^2+]i was measured by microspectrofluorimetry using a calcium sensitive fluorescent probe: indo-1. When excited at 360 nm wavelength, the so-called monoexcitation/double emission indo-1 probe transmitted back in a spectrum ranging from 400 to 500 nm. Binding of Ca^2+ to indo-1 caused displacement of the emission spectrum after excitation. The emission maximum in the unbound form was located around 480 nm. The emission of the complexed form was around 405 nm. An increase of calcium concentration thus caused the emission to increase to 405 nm and the emission to decrease to 480 nm. The ratio of both fluorescence intensities allowed to be independent from the quantity of the probe and to determine the [Ca^2+]i according to the Grynkiewicz equation:\n[Ca^2+]i(nM)=Kd.β×(R−Rmin)/(Rmax−R)\nRmax, Rmin and Kd. β were determined by combining electrophysiology (patch clamp) and spectrofluorimetry. Rmax was determined by placing in the patch pipette a medium containing 10 mM CaCl2. Rmin was obtained by placing as an intrapipette solution a calcium-deprived medium (10 mM EGTA).\nThe cells were then rinsed with HBSS (800 rpm centrifugation for 2 minutes) and placed in an observation chamber on a glass coverslip. […] The excitation light is supplied by a Xenon lamp (100W). […] The substances to be tested were applied using a glass pipette positioned at some twenty μm of the studied cell and connected to a pneumatic system.\nThe principle as well as the loading of the cells were identical with the measurement on single cells. In such a case, approx. 40,000 cells were placed in a quartz tub under constant agitation. The tub was then placed in a Hitachi spectrofluorimeter whereof the excitation monochromator was set to 350 nm. […] The signals were transmitted to a computer via an analogue/digital converter. So as to be able to apply the Grynkiewicz equation (see above) and translate the fluorescence ratios measured in calcium values, the calibration parameters were entered into the software. The substances to be tested were applied directly in the tube under constant agitation."}, "[3]": {"tested_on": "Raji, BL2, Jurkat cell lines and activated PBL", "experiment": "Apoptosis % by loss of mitochondrial membrane potential", "method": "2 to 4.10^4 cells were deposited in wells in a 96-well plate. The cells were incubated, in the presence of the different reactants for the times specified, at 37° C. in a final volume of 100 or 200 μl. The apoptotic cells were identified in the cellular populations by measuring mitochondrial de-polarisation. […] These potentiometric probes allowed monitoring the variations of the mitochondrial membrane potential. […] Following cell treatment with the different drugs, the former were placed in the presence of TMRM or DIOC6 at 10 nM concentration, for 20 minutes at 37° C. then the fluorescence of the cells was analysed by flow cytometry."}, "[4]": {"tested_on": "T and B leukemia/lymphoma cell lines and activated PBLs treated with FasL", "experiment": "Fas/CD95-mediated cell death (MTT test)", "method": "2 to 4.10^4 cells were deposited in wells in a 96-well plate. The cells were incubated, in the presence of the different reactants for the times specified, at 37° C. in a final volume of 100 or 200 μl.\nThe MTT test enabled to measure the activity of a mitochondrial enzyme, the dehydrogenase succinate which transforms MTT (or 3-(4,5-dimethylthiazol-2-yl)-2,5-diphenyltetrazolium) bromide originally yellow in colour and soluble, into blue formazan crystals, insoluble in aqueous phase. Upon completion of the different treatments, the living cells were quantified by adding in each well 15 μl PBS (Phosphate Buffered Saline) containing 5 mg/ml MTT. […] Spectrophotometric reading of absorbance was done at 570 nm. The measurement of the optical density is directly proportional to the number of living cells and the percentage of cell death was calculated with the following formula: 100-[(DO treated cells/DO non-treated cells)*100]."}}, "note": "Entries after “also recorded” stand apart in the source; their conditions may differ.", "data": [{"smiles": "CC(=O)OCOC(=O)CN(CC(=O)OCOC(C)=O)c1ccccc1OCCOc1ccccc1N(CC(=O)OCOC(C)=O)CC(=O)OCOC(C)=O", "note": "[BAPTA-AM, 1,2-bis-(o-Aminophenoxy)ethane-N,N,N′,N′-tetraacetic tetra-(acetoxymethyl) acid Ester]", "values": [{"measurement": "kinetic of caspase-8 cleavage upon CD95L", "setting": "caspase-8; T and B-cell lines", "value": "accelerated the cleavage of the initiator caspase-8"}, {"measurement": "caspase-8 activation or mitochondrial depolarization by the agent alone", "setting": "caspase-8; during 60 minutes treatment, no CD95L", "value": "no trace of caspase-8 activation or mitochondrial depolarization was detected"}, {"measurement": "DISC formation / FADD recruitment upon CD95 stimulation", "setting": "[1]; H9, Jurkat, activated PBTs, non-cytotoxic concentrations", "value": "dramatically improved the DISC formation; also recorded: induction of DISC formation"}, {"measurement": "formation of the DISC macro-complex", "setting": "[1]; H9 cells, BAPTA-AM 1-10 μM or ionomycine 1 μM pre-incubation, then anti-Fas APO1-3 1 μg/ml 15 min 37° C.", "value": "enhanced formation of the DISC macro-complex"}, {"measurement": "CD95 aggregation", "setting": "CD95", "value": "formation of the CD95 aggregation"}, {"measurement": "increase in intracellular calcium in response to extracellular 3 mM Ca2+", "setting": "[2]; Raji, BAPTA-AM 10 μM pretreatment", "value": "smaller increase in the intracellular calcium concentration"}, {"measurement": "CD95-mediated peak of calcium", "setting": "[2]; non-cytotoxic concentrations, CD95 stimulation", "value": "totally abrogated the CD95-mediated peak of calcium"}, {"measurement": "basal [Ca2+]i", "setting": "[2]; pre-incubation of cells", "value": "induced a faint decrease in the basal [Ca^2+]i"}, {"measurement": "potentiation of apoptotic signals mediated by edelfosine or Rituximab", "setting": "[3]; B lymphoma cell lines, BAPTA-AM 1 μM pre-incubation", "value": "allowed potentiating apoptotic signals"}, {"measurement": "apoptotic signal with Rituximab associated with BAPTA-AM", "setting": "[3]; BL2 cell line, deprived of Fas receptor, Rituximab resistant", "value": "no increase in the apoptotic signal has been observed"}, {"measurement": "sensitisation to the Fas-mediated apoptotic signal (% cell death)", "setting": "[4]; BAPTA-AM 1 μM pre-incubation then FasL, leukemia/lymphoma cell lines and activated PBLs", "value": "sensitised to the Fas-mediated apoptotic signal; also recorded: increase in percentage of cell death"}, {"measurement": "sensitisation to the Fas-mediated apoptotic signal (% cell death)", "setting": "[4]; BAPTA-AM 1 μM then FasL, BL2 cell line devoid of endogenous Fas", "value": "have not been sensitised"}, {"measurement": "CD95-mediated apoptotic signal in CD95-resistant cells", "setting": "[4]; Jurkat-CD95Q257K, pre-incubation with non-cytotoxic doses", "value": "restored the CD95-mediated apoptotic signal at a level comparable to the parental cell line"}, {"measurement": "apoptotic signal by the agent alone", "setting": "[4]; leukemic cell lines, long-term culture up to 24 hours, no CD95L", "value": "did not trigger the apoptotic signal"}]}]}
